Key:
Test in all cases: relative viability (nuclei count vs DMSO), 5 days (fraction); higher = more cells survive
MK-8033 + Decitabine = compound: Cn1cc(-c2cnc3ccc4ccc(CS(=O)(=O)NCc5ccccn5)cc4c(=O)c3c2)cn1 [MK-8033] + Nc1ncn([C@H]2C[C@H](O)[C@@H](CO)O2)c(=O)n1 [Decitabine] (partner 2 µM)
Outline: (§1)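 Five library-drug doses in √10 steps were combined with a fixed anchor-drug dose, or a single drug was given alone, by pin tool to lung cancer cell lines in 1536-well plates the day after seeding. Nuclei were stained and counted after 5 days. Relative viability is the nuclei count in treated wells over that in vehicle wells, taken as the median of duplicate plates.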

MK-8033 + AZD7762 = compound: Cn1cc(-c2cnc3ccc4ccc(CS(=O)(=O)NCc5ccccn5)cc4c(=O)c3c2)cn1 [MK-8033] + NC(=O)Nc1cc(-c2cccc(F)c2)sc1C(=O)N[C@H]1CCCNC1 [AZD7762] (partner 0.2 µM)
Outline: as §1

Irinotecan + Navitoclax = compound: CCc1c2c(nc3ccc(OC(=O)N4CCC(N5CCCCC5)CC4)cc13)-c1cc3c(c(=O)n1C2)COC(=O)[C@]3(O)CC [Irinotecan] + CC1(C)CCC(c2ccc(Cl)cc2)=C(CN2CCN(c3ccc(C(=O)NS(=O)(=O)c4ccc(N[C@H](CCN5CCOCC5)CSc5ccccc5)c(S(=O)(=O)C(F)(F)F)c4)cc3)CC2)C1 [Navitoclax] (partner 0.5 µM)
Outline: as §1

MK-8033 + Vorinostat = compound: Cn1cc(-c2cnc3ccc4ccc(CS(=O)(=O)NCc5ccccn5)cc4c(=O)c3c2)cn1 [MK-8033] + O=C(CCCCCCC(=O)Nc1ccccc1)NO [Vorinostat] (partner 1 µM)
Outline: as §1

Cell Line | relative viability (MK-8033 + Decitabine; first compound 0.02 µM) | relative viability (MK-8033 + Decitabine; first compound 0.06325 µM) | relative viability (MK-8033 + Decitabine; first compound 0.2 µM) | relative viability (MK-8033 + Decitabine; first compound 0.6325 µM) | relative viability (MK-8033 + Decitabine; first compound 2 µM) | relative viability (MK-8033 + AZD7762; first compound 0.02 µM) | relative viability (MK-8033 + AZD7762; first compound 0.06325 µM) | relative viability (MK-8033 + AZD7762; first compound 0.2 µM) | relative viability (MK-8033 + AZD7762; first compound 0.6325 µM) | relative viability (MK-8033 + AZD7762; first compound 2 µM) | relative viability (Irinotecan + Navitoclax; first compound 0.6325 µM) | relative viability (Irinotecan + Navitoclax; first compound 2 µM) | relative viability (Irinotecan + Navitoclax; first compound 6.325 µM) | relative viability (Irinotecan + Navitoclax; first compound 20 µM) | relative viability (MK-8033 + Vorinostat; first compound 0.02 µM) | relative viability (MK-8033 + Vorinostat; first compound 0.06325 µM) | relative viability (MK-8033 + Vorinostat; first compound 0.2 µM) | relative viability (MK-8033 + Vorinostat; first compound 0.6325 µM) | relative viability (MK-8033 + Vorinostat; first compound 2 µM)
RERF-LC-KJ | 0.501 | 0.712 | 0.682 | 0.756 | 0.686 | 0.984 | 0.84 | 1.01 | 0.981 | 0.942 | 0.936 | 1.18 | 0.52 | 0.504 | 0.726 | 0.599 | 0.664 | 0.707 | 0.597
NCI-H2126 | 0.593 | 0.561 | 0.565 | 0.568 | 0.593 | 1.06 | 0.993 | 1.02 | 0.942 | 1.02 | – | 0.421 | 0.319 | 0.308 | 0.671 | 0.554 | 0.72 | 0.798 | 0.822
NCI-H1355 | 0.363 | 0.309 | 0.36 | 0.335 | 0.318 | 0.75 | 0.639 | 0.633 | 0.735 | 0.687 | 0.812 | 0.28 | 0.195 | 0.237 | 0.62 | 0.549 | 0.62 | 0.658 | 0.592
A-427 | 0.579 | 0.523 | 0.585 | 0.583 | 0.569 | 0.791 | 0.634 | 0.692 | 0.775 | 0.728 | – | 0.222 | 0.215 | 0.172 | 0.886 | 0.826 | 0.819 | 0.908 | 0.881
NCI-H3122 | 0.441 | 0.478 | 0.406 | 0.508 | 0.469 | 0.931 | 0.886 | 0.965 | 1.06 | 0.977 | 0.723 | 0.235 | 0.226 | 0.209 | 0.834 | 1.3 | 0.879 | 1.14 | 1.01
NCI-H1437 | 0.615 | 0.585 | 0.511 | 0.626 | 0.549 | 1.07 | 1.18 | 1.06 | 1.1 | 1.11 | 0.75 | 0.575 | 0.308 | 0.214 | 0.703 | 0.801 | 0.732 | 0.899 | 0.769
NCI-H1651 | 0.706 | 0.606 | 0.653 | 0.694 | 0.649 | 0.551 | 0.397 | 0.482 | 0.479 | 0.564 | 0.763 | 0.544 | 0.199 | 0.168 | 0.665 | 0.484 | 0.593 | 0.597 | 0.633
NCI-H2087 | 0.223 | 0.159 | 0.289 | 0.272 | 0.277 | 1.43 | 1.32 | 1.22 | 1.3 | 1.22 | 0.468 | 0.26 | 0.184 | 0.218 | 0.788 | 0.368 | 0.749 | 0.728 | 0.692
ChaGo-K-1 | 0.525 | 0.463 | 0.56 | 0.385 | 0.511 | 0.872 | 0.921 | 0.857 | 0.932 | 0.82 | – | 0.784 | 0.407 | 0.33 | 0.769 | 0.74 | 0.729 | 0.685 | 0.687
LXF-289 | 0.377 | 0.394 | 0.352 | 0.408 | 0.338 | 1.15 | 1.02 | 0.958 | 1.18 | 1.08 | 0.891 | 0.439 | 0.153 | 0.175 | 0.843 | 0.615 | 0.737 | 0.755 | 0.812
LC-2-ad | 0.889 | 1.08 | 0.722 | 0.813 | 0.722 | 0.832 | 0.783 | 0.78 | 0.843 | 0.827 | 0.287 | 0.282 | 0.169 | 0.167 | 0.786 | 0.651 | 0.618 | 0.75 | 0.659
NCI-H2085 | 0.53 | 0.571 | 0.475 | 0.544 | 0.559 | 0.975 | 0.878 | 0.923 | 0.988 | 0.836 | 1.03 | 0.862 | 0.493 | 0.507 | 0.744 | 0.734 | 0.691 | 0.835 | 0.764

— the supplement of paper PMC10307832
